From patent US10131652B2, “Pyrimidinyloxy benzene derivatives as herbicides” (E. I. DU PONT DE NEMOURS AND COMPANY, priority 2014, dated 2018)

Key:
Type in all cases: in vivo
[1] = system: chickweed (common chickweed, Stellaria media); assay: Test D postemergence plant response
Source text: (§1) At the same time, plants selected from these crop and weed species and also kochia (Kochia scoparia), wild oat (Avena fatua), and chickweed (common chickweed, Stellaria media) were planted in pots containing Redi-Earth® planting medium (Scotts Company, 14111 Scottslawn Road, Marysville, Ohio 43041) comprising spaghnum peat moss, vermiculite, wetting agent and starter nutrients and treated with postemergence applications of test chemicals formulated in the same manner. Plants ranged in height from 2 to 18 cm (1- to 4-leaf stage) for postemergence treatments. Treated plants and controls were maintained in a greenhouse for 13 to 15 days, after which time all species were compared to controls and visually evaluated. Plant response ratings, summarized in Table D, are based on a scale of 0 to 100 where 0 is no effect and 100 is complete control. A dash (-) response means no test result.

wild oat (Avena fatua) = assay: Test D postemergence plant response
Source text: as §1

kochia (Kochia scoparia) = assay: Test D postemergence plant response
Source text: as §1

[2] = system: blackgrass (Alopecurus myosuroides); assay: Test B postemergence plant response
How it was run: (§2)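 Weeds grown in loam soil/sand pots were sprayed postemergence at 2 to 10 cm height, one- to two-leaf stage. After approximately 10 days in greenhouse, injury was rated visually against untreated controls on a 0 (no effect) to 100 (complete control) scale; dash means no test result.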

[3] = system: galium (catchweed bedstraw, Galium aparine); assay: Test B postemergence plant response
How it was run: as §2

[4] = 16 g ai/ha, scale 0 to 100 (0 no effect, 100 complete control)
[5] = 31 g ai/ha, scale 0 to 100 (0 no effect, 100 complete control)
[6] = 62 g ai/ha, scale 0 to 100, 0 no effect, 100 complete control
[7] = 125 g ai/ha, postemergence, 0 to 100 scale, 0 no effect, 100 complete control
[8] = Postemergence, 500 g ai/ha, 0 to 100 scale (0 no effect, 100 complete control)
[9] = 125 g ai/ha, scale 0 to 100, 0 no effect, 100 complete control
[10] = Postemergence, 31 g ai/ha, 0 to 100 scale (0 no effect, 100 complete control)
[11] = Postemergence, 1000 g ai/ha, 0 to 100 scale (0 no effect, 100 complete control)

Row | Structure (SMILES) | Chickweed plant response rating [1, 4] | Chickweed plant response rating [1, 5] | Plant response rating, Chickweed [1, 6] | Oat, Wild plant response rating (wild oat (Avena fatua); [5]) | Plant response rating, Oat, Wild (wild oat (Avena fatua); [6]) | Kochia plant response rating (kochia (Kochia scoparia); [5]) | Plant response rating, Kochia (kochia (Kochia scoparia); [6]) | Plant response rating, Blackgrass [2, 7] | Plant response rating, Blackgrass [2, 8] | Plant response rating, Galium [3, 7] | Plant response rating, Galium [3, 8] | Plant response rating, Chickweed [1, 9] | Plant response rating, Oat, Wild (wild oat (Avena fatua); [9]) | Plant response rating, Kochia (kochia (Kochia scoparia); [9]) | Plant response rating (scale 0 to 100), Chickweed ([1]; 16 g ai/ha) | Plant response rating (scale 0 to 100), Oat, Wild (wild oat (Avena fatua); 16 g ai/ha) | Oat, Wild plant response rating (wild oat (Avena fatua); [6]) | Plant response rating (scale 0 to 100), Kochia (kochia (Kochia scoparia); 16 g ai/ha) | also measured
1 | FC(F)(F)c1cc(-c2c(I)cccc2Oc2ncc(Cl)cn2)no1 [Compound 156] | 5 | 45 | 70 | 0 | 0 | 30 | 45 | 20 | 40 | 90 | 100 | – | – | – | – | – | – | – | Plant response rating (scale 0 to 100), Chickweed ([1]; 8 g ai/ha): 5; Plant response rating (scale 0 to 100), Oat, Wild (wild oat (Avena fatua); 8 g ai/ha): 0; Plant response rating (scale 0 to 100), Kochia (kochia (Kochia scoparia); 8 g ai/ha): 0
2 | N#Cc1cccc(Oc2ncc(Cl)cn2)c1-c1cc(C(F)(F)F)on1 [Compound 157] | 50 | 75 | – | 10 | – | 90 | – | 70 | 90 | 100 | 100 | – | – | – | – | – | – | – | Plant response rating (scale 0 to 100), Chickweed ([1]; 4 g ai/ha): 5; Plant response rating (scale 0 to 100), Chickweed ([1]; 8 g ai/ha): 10; Plant response rating (scale 0 to 100), Oat, Wild (wild oat (Avena fatua); 4 g ai/ha): 0; Plant response rating (scale 0 to 100), Oat, Wild (wild oat (Avena fatua); 8 g ai/ha): 0; Plant response rating (scale 0 to 100), Kochia (kochia (Kochia scoparia); 4 g ai/ha): 0; Plant response rating (scale 0 to 100), Kochia (kochia (Kochia scoparia); 8 g ai/ha): 20
3 | FC(F)(Br)c1cc(-c2ccccc2Oc2ncc(Cl)cn2)no1 [Compound 162] | 50 | 60 | 60 | 5 | 5 | 100 | 100 | 30 | – | 90 | – | 85 | 10 | 100 | – | – | – | – | Plant response rating, Blackgrass [2, 10]: 30; Plant response rating, Galium [3, 10]: 90
4 | Fc1cccc(Oc2ncc(Cl)cn2)c1-c1cc(C(F)(F)F)on1 [Compound 168, 5-chloro-2-[2-[5-(trifluoromethyl)-3-isoxazolyl]-3-fluorophenoxy]pyrimidine] | – | – | – | – | – | – | – | 90 | 90 | 100 | 100 | – | – | – | – | – | – | – | pest or weed control at 16 g/ha ([1]; Stellaria media, post-emergence, 16 g ai/ha, scale 0 to 100 (0 no effect, 100 complete control), read-out: Chickweed plant response rating): 65%; pest or weed control at 31 g/ha ([1]; Stellaria media, post-emergence, 31 g ai/ha, scale 0 to 100 (0 no effect, 100 complete control), read-out: Chickweed plant response rating): 98%; pest or weed control at 62 g/ha ([1]; Stellaria media, post-emergence, 62 g ai/ha, scale 0 to 100, 0 no effect, 100 complete control, read-out: Plant response rating, Chickweed): 100%; pest or weed control at 125 g/ha ([1]; Stellaria media, post-emergence, 125 g ai/ha, scale 0 to 100, 0 no effect, 100 complete control, read-out: Plant response rating, Chickweed): 100%; pest or weed control at 31 g/ha (wild oat (Avena fatua); Avena fatua, post-emergence, 31 g ai/ha, scale 0 to 100 (0 no effect, 100 complete control), read-out: Oat, Wild plant response rating): 10%; pest or weed control at 62 g/ha (wild oat (Avena fatua); Avena fatua, post-emergence, 62 g ai/ha, scale 0 to 100, 0 no effect, 100 complete control, read-out: Plant response rating, Oat, Wild): 20%; pest or weed control at 125 g/ha (wild oat (Avena fatua); Avena fatua, post-emergence, 125 g ai/ha, scale 0 to 100, 0 no effect, 100 complete control, read-out: Plant response rating, Oat, Wild): 30%; pest or weed control at 31 g/ha (kochia (Kochia scoparia); Bassia scoparia, post-emergence, 31 g ai/ha, scale 0 to 100 (0 no effect, 100 complete control), read-out: Kochia plant response rating): 100%; pest or weed control at 62 g/ha (kochia (Kochia scoparia); Bassia scoparia, post-emergence, 62 g ai/ha, scale 0 to 100, 0 no effect, 100 complete control, read-out: Plant response rating, Kochia): 100%; pest or weed control at 125 g/ha (kochia (Kochia scoparia); Bassia scoparia, post-emergence, 125 g ai/ha, scale 0 to 100, 0 no effect, 100 complete control, read-out: Plant response rating, Kochia): 100%
5 | FC(F)(F)c1cc(-c2c(Cl)cccc2Oc2ncc(Cl)cn2)no1 [Compound 169] | 5 | 40 | 70 | 5 | 5 | 60 | 90 | 50 | 90 | 100 | 100 | 80 | 10 | 95 | – | – | – | – | –
6 | FC(F)(F)c1cc(-c2c(Br)cccc2Oc2ncc(Cl)cn2)no1 [Compound 170] | 30 | 65 | 90 | 5 | 5 | 60 | 85 | 50 | 60 | 80 | 100 | 100 | 10 | 100 | – | – | – | – | –
7 | CC(F)(F)c1cc(-c2ccccc2Oc2ncc(Cl)cn2)on1 [Compound 178] | – | 50 | 60 | 0 | – | 95 | 100 | 40 | – | 100 | – | 80 | 5 | 100 | 50 | 0 | 5 | 90 | Plant response rating, Blackgrass [2, 10]: 10; Plant response rating, Galium [3, 10]: 80
8 | N#Cc1cccc(Oc2ncc(Cl)cn2)c1-c1cc(C(F)F)on1 [Compound 180] | – | 60 | 85 | 5 | – | 90 | 100 | 90 | 90 | 100 | 100 | 95 | 30 | 100 | 60 | 0 | 5 | 85 | –
9 | Clc1cnc(Oc2ccccc2-c2cc(C3CC3)on2)nc1 [Compound 183] | – | 60 | 65 | 5 | – | 95 | 100 | 80 | 90 | 100 | 100 | 70 | 25 | 100 | 30 | 0 | 10 | 90 | –
10 | Clc1cnc(Oc2ccccc2-c2ccon2)nc1 [Compound 185] | – | 0 | 5 | 0 | – | 0 | 5 | 0 | 50 | 40 | 70 | 5 | 5 | 30 | 0 | 0 | 0 | 0 | –
11 | FCc1cc(-c2c(Br)cccc2Oc2ncc(Cl)cn2)no1 [Compound 191] | – | 55 | 70 | 0 | – | 80 | 85 | – | – | – | – | 90 | 5 | 90 | 50 | 0 | 5 | 50 | Plant response rating, Blackgrass [2, 11]: 100; Plant response rating, Galium [3, 11]: 100
